Source: patent publication US20050181450A1, “Novel inositol 1,4,5-trisphosphate (IP3) receptor-binding protein and an IP3 indicator” (priority 2002, published 2005)

Assays:
[1] = biological target: T1, IRBIT bound to GST-EL (mouse IP3R1 amino acids 1-2217) (Mus musculus, UniProt P11881, N1264K); test: Dissociation of IRBIT from GST-EL by eluants (pulldown, immunoblot quantification); format: binding
T1 construct: construct a GST-IP3R1 (1-2217) vector (termed GST-EL); made in house; host or cells: Sf9 cells (baculovirus) for GST-EL; IRBIT from mouse cerebellum tissue extract
T1 sequence (P11881 1-2217 N1264K): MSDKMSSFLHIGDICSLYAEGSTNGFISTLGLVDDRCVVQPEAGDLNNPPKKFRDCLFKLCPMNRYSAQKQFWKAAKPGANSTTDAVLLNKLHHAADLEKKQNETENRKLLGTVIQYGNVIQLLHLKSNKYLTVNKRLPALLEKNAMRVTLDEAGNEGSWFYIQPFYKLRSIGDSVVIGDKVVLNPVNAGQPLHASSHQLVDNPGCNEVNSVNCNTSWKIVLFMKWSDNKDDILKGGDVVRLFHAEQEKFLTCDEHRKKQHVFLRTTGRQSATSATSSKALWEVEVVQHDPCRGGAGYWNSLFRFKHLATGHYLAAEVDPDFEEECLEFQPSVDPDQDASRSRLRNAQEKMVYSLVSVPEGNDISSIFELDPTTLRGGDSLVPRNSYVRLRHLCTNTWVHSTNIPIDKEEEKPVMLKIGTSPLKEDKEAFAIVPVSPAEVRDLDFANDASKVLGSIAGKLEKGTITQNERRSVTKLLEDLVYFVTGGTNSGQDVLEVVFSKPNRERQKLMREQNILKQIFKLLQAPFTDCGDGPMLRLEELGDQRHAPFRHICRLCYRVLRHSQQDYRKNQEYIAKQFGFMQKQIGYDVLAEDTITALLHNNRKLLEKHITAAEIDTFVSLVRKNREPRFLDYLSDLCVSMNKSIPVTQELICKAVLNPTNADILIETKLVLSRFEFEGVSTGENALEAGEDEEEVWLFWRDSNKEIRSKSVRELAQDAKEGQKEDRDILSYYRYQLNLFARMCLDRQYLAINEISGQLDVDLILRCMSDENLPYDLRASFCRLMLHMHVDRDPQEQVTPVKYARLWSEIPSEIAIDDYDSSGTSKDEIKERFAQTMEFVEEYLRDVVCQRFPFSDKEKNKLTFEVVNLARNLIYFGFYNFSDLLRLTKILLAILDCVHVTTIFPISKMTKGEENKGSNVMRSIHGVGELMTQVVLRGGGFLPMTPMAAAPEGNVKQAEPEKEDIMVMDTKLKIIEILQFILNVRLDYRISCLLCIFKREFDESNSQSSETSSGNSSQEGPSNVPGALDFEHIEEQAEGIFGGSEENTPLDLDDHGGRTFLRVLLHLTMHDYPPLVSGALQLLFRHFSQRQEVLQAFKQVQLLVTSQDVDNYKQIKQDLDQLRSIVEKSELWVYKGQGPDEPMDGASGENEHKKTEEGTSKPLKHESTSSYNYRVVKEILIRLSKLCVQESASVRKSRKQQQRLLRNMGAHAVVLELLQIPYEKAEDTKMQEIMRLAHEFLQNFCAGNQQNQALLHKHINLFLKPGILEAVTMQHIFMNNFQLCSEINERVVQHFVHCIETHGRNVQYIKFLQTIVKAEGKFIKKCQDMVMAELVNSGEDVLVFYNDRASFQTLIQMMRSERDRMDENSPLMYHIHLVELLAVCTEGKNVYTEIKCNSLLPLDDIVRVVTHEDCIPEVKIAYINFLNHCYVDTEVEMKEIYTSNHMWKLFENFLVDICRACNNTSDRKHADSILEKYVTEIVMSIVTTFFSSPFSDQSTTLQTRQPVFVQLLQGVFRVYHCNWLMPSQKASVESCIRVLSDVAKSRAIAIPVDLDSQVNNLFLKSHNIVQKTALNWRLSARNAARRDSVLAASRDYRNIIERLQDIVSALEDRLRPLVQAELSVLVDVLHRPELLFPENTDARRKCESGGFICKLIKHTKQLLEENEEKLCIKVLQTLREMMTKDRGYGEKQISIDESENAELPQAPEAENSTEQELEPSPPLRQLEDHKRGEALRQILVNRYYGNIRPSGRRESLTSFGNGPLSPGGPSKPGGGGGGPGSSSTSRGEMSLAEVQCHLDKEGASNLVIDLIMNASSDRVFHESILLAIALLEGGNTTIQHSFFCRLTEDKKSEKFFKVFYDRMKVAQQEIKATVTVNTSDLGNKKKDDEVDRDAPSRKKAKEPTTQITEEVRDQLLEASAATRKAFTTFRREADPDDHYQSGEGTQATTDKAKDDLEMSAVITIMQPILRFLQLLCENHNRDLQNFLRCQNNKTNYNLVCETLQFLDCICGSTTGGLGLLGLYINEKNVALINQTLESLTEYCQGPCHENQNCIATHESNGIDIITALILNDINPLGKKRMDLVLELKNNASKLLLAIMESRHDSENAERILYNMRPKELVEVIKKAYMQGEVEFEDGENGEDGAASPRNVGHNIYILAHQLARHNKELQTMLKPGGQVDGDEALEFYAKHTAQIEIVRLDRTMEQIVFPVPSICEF
Method: Bound proteins were pulled down with glutathione-Sepharose, and eluted with glutathione (Glu) (a) or 0.1 to 10 μM IP3 (a), IP2 (b), IP4 (c), IP6 (d), or ATP (e). IRBIT in the extract was analyzed with anti-IRBIT antibody and Alexa 680-conjugated secondary antibody (“a” (lower panel) and panels “b” to “e”). GST-EL in the glutathione and 0.1 to 10 μM IP3 eluate was analyzed with anti-GST antibody (a, upper panel). […] The relative intensity was plotted against the concentration of an eluant. Results are shown as the mean±standard deviation from at least three independent experiments.
For dissociation experiments, IRBIT in the diluted high salt extract was pulled down with GST-EL for precipitation and washed as described above. To resins, 100 μl of a wash buffer containing IP3, inositol 4,5-bisphosphate (IP2) (Dojindo), inositol 1,3,4,5-tetrakisphosphate (IP4) (Calbiochem), inositol 1,2,3,4,5,6-hexakisphosphate (IP6) (Calbiochem) or ATP (Amersham Pharmacia Biotech) (0.1, 0.3, 1, 3 or 10 μM) were added. After incubation on ice for 10 minutes, samples were centrifuged at 10,000 rpm for 1 minute, and the supernatant was subjected to immunoblot analysis with anti-IRBIT antibody or goat anti-GST antibody (Amersham Pharmacia Biotech). For quantification, Alexa 680-conjugated goat anti-rabbit IgG (Molecular Probes) was used as a secondary antibody. The fluorescence intensity of the immunoreactive bands of IRBIT was measured using the Odyssey infrared imaging system (Aloka). Quantitative data (the mean±SD from at least three independent experiments) is expressed as a percentage of the amount of IRBIT in 10 μM IP3 eluate.
IRBIT in the high salt extract from the mouse cerebellar crude microsome was trapped with GST-EL. Then elution was attempted with 0.1 to 10 μM IP3, and other inositolpolyphosphates, IP2, IP4, IP6 or ATP. […] It was confirmed that GST-EL was not detected (FIG. 8Aa, upper panel), even with longer exposure. […]

[2] = biological target: N-terminal region of IP3R1 (amino acids 1-604) (Mus musculus, UniProt P11881); conditions: cited from earlier work
N-terminal region of IP3R1 (amino acids 1-604), sequence (P11881 1-604): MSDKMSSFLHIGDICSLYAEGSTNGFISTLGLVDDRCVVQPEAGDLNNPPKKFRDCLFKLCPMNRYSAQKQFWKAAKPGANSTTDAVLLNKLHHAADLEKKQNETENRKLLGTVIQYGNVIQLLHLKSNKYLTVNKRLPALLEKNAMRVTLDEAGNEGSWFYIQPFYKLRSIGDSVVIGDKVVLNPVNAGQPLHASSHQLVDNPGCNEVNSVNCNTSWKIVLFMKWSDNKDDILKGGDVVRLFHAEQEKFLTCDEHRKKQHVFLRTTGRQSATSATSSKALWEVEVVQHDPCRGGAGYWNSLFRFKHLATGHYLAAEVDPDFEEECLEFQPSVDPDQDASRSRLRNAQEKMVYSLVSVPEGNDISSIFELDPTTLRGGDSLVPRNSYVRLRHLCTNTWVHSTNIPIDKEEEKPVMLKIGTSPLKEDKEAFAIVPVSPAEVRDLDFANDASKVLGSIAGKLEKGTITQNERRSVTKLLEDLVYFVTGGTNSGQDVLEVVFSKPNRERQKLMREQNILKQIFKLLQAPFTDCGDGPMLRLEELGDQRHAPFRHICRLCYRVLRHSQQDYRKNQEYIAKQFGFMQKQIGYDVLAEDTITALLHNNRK

[3] = biological target: T2, GST-EL (mouse IP3R1 amino acids 1-2217) (Mus musculus, UniProt P11881, N1264K); test: GST pulldown with GST-EL; format: binding; conditions: GFP fusion proteins in Cos-7 cell lysates
T2 construct: construct a GST-IP3R1 (1-2217) vector (termed GST-EL); made in house; host or cells: Sf9 cells (baculovirus)
T2 sequence (P11881 1-2217 N1264K): as the sequence (P11881 1-2217 N1264K) above
Method: Mouse cerebellar cytosolic fraction was diluted 2-fold with 10 mM Hepes (pH 7.4), 200 mM NaCl, 2 mM EDTA, 1 mM 2-ME and 0.02% Triton X-100. The high salt extract was diluted 5-fold with 10 mM Hepes (pH 7.4), 2 mM EDTA, 1 mM 2-ME and 0.01% Triton X-100. The diluted fractions (the final NaCl concentration of both fractions was 100 mM) were incubated with 20 μg of GST-EL or GST for 2 hours at 4° C. After adding 10 μl of glutathione-Sepharose and another 2 hours of incubation, the resins were washed 5 times with a wash buffer (10 mM Hepes (pH 7.4), 100 mM NaCl, 2 mM EDTA, 1 mM 2-ME, and 0.01% Triton X-100), and bound proteins were eluted with 20 mM glutathione.
The eluted proteins were analyzed by Western blotting with anti-IRBIT antibody. For dephosphorylation, the diluted high salt extract was incubated in the presence of or the absence of Escherichia coli alkaline phosphatase (Toyobo) with 2 mM MgCl2 for 30 minutes at 37° C. 5 mM EDTA was added, and then the resultant was subjected to pulldown assay as described above.
For the determination of the IP3R1-interacting region of IRBIT, Cos-7 cells expressing GFP-tagged full-length IRBIT or its truncated mutants were lysed in a lysis buffer (10 mM Hepes (pH7.4), 100 mM NaCl, 2 mM EDTA, 1 mM 2-ME, 0.5% Nonidet P-40, and protease inhibitor) for 30 minutes at 4° C., followed by centrifugation (100,000×g, 30 minutes). The supernatants were subjected to pulldown assay with GST-EL or GST as described above, and bound proteins were subjected to immunoblot analysis with anti-GFP antibody (Medical & Biological Laboratories).

In the case of `Nc1ncnc2c1ncn2[C@@H]1O[C@H](COP(=O)(O)OP(=O)(O)OP(=O)(O)O)[C@@H](O)[C@H]1O` [ATP], the “dissociation of IRBIT from GST-EL” value ([1]; 10 μM eluant) is reported as “did not dissociate”.

For `O=P(O)(O)O[C@@H]1[C@H](O)[C@H](O)[C@@H](OP(=O)(O)O)[C@H](OP(=O)(O)O)[C@H]1O` [IP3, inositol 1,4,5-trisphosphate], the EC50 ([1]; pH 7.4 and 100 mM NaCl, IRBIT from mouse cerebellar high salt extract, read-out: EC50 (IP3 concentration required for half (50%)-maximal dissociation of IRBIT from GST-EL)) is listed as about 500 nM, the “dissociation efficiency relative to other inositol polyphosphates” value ([1]; versus IP2, IP4, IP6) is listed as “approximately 50 times” and the “affinity lower than the Kd value determined by a conventional assay” value ([2]; pH 7.4 and 150 mM NaCl versus conventional assay) is listed as “approximately 7.5 fold”. The Kd ([2]; physiological conditions (pH 7.4 and 150 mM NaCl), read-out: Kd of IP3 binding) was 336 nM.

In the case of “GFP-IRBIT (1 to 277): GFP-tagged deletion mutant of IRBIT, amino acids 1-277”, the “interaction with GST-EL” value [3] is reported as “bound to GST-EL efficiently”.

With “GFP-IRBIT (1-104): GFP-tagged deletion mutant of IRBIT, amino acids 1-104 (N-terminal region)” the “interaction with GST-EL” value [3] was “much weaker”.

For “GFP-IRBIT (105-530): GFP-tagged deletion mutant of IRBIT, amino acids 105-530, lacking the N-terminal region”, the “interaction with GST-EL” value [3] was “did not interact with GST-EL”.

For “GFP-IRBIT: GFP-tagged full-length IRBIT expressed in Cos-7 cells”, the “interaction with GST-EL” value [3] was “bound to GST-EL efficiently”.
